From US20030003488A1, “Regulation of human mitochondrial deformylase” (priority 1999, published 2003)

Tested on: human mitochondrial deformylase
Assay: Expression of mitochondrial deformylase by Western blotting in antisense-treated HCT 116 cells
Type: cell-based
Conditions: 10 micromolar once per day for seven days

Substance	expression of the mitochondrial deformylase as determined by Western blotting
5′-AAAATGCAGGTAAGCATGTGAAAA-3′ [oligonucleotide (2)]	significantly reduced expression
5′-CAGCGATTTAAATACGGAACAAGG-3′ [oligonucleotide (1)]	significantly reduced expression
5′-TCAACTGACTAGATGTACATGGAC-3′ (DNA TCAACTGACTAGATGTACATGGAC; chemistry not given here) [oligonucleotide (3), reference compound]	not observed
